Tested on: resting carbohydrate metabolism
Test: Resting metabolism by indirect calorimetric measurement in patients after pulsed IV insulin boluses with oral carbohydrate load
Type: in vivo, human
Text: A basic treatment sequence, in one preferred embodiment, is as follows. • Settle the patient and establish an intravenous (IV) flow. • Measure blood glucose. • From Table 1, arrange for the specified grams of glucose be made available to the patient. • Have the patient consume the glucose relatively quickly (time scale of minutes). Drinking an appropriate amount of GLUCOLA at a convenient rate, such as over about 30 to 90 seconds, is a useful range and route of administration. • Start IV boluses of hormone. Insulin is a useful and typical hormone for this application. • Administer hormone at the selected quantity, rate, and pattern. These details are discussed in more detail in the following sections. A typical sequence will administer the selected amount of insulin (milliunits, determined as per kilogram body weight of the patient). A useful bolus is fairly quick, such as less than five seconds. Bolus injections are repeated periodically. A useful scheme is to give boluses every six minutes, over the course of one hour. It can be useful to give boluses more rapidly. Every four minutes is a useful number. Spacing of approximately three to approximately ten minutes can be useful, and we have not tested the outer ranges of usefulness.
One useful way of assessing metabolic activity and health is to measure the volume of Carbon Dioxide Production and a […]. In example (a) below, CO2 production initially equals 0.124 L per 30 seconds of exhaled breath, with a Resting Energy Ratio of 0.66. The ratio is how one can test the amount of carbohydrate metabolized and thus producing ATP to verify the patient is metabolizing carbohydrates. Below […] is lipid metabolism, and above […] is carbohydrate metabolism.
It is useful for the metabolic assessment of the present invention to express exhaled CO2 in volume/time, such as L/30 sec. This assessment varies by patient, according to their size, lung capacity and other factors understood by one skilled in the art of pulmonary function and metabolism.
A useful tool for assessing this is from Vacuumed. The Vacuumed website (www) vacuumed (corn) includes a good discussion of the resting metabolism measurement. • VO2=oxygen uptake (ml/min) • VCO2=carbon dioxide output (ml/min) • Respiratory quotient (RQ)=VCO2/VO2
• a. The treatment form has 3 one-hour sessions with from 10 to 60 minutes rest between treatments. • b. TREATMENT GOAL: The goal of the treatment is to obtain increased ATP production from carbohydrates, by metabolizing approximately 100 g of glucose for each hour including the rest period. A desirable treatment blood glucose for oral carbohydrates is 150 mg/dl or 8.3 mmol/L of blood glucose. That equates to approximately 380 calories of carbohydrates for each 1-hour treatment session, or a total of 1,140 calories total for the 4.5 to 5.5 hours. • c. In one embodiment, patients' serum glucose level is monitored every thirty minutes to determine carbohydrate uptake and utilization. Resting metabolic measurement by an indirect calorimeter such as the Vacuumed Metabolic Measurement system provides the level of production of ATP from carbohydrates to validate the increase. • d. In order to maintain serum glucose levels sufficient to provide for a carbohydrate load for the production of ATP, the serum glucose is maintained at 150 mg/dl or 8.3 mmol/L or more by starting at 10 milliunits per kilo and increasing by 2 milliunits each 30 minutes until the desired level is achieved. This level is constantly adjusted each 30 minutes until the nominal load is obtained, and then continues for the remainder of the treatment, and is used for subsequent treatments.
a. In a preferred implementation, these patients: • i. Were checked for serum blood glucose (BG) about every 30 minutes, and for about 4.5 hours. • ii. Were given glucose averaging approximately 1,200 calories over that time. • iii. […]

insulin
increase in ATP from carbohydrates (person with Alzheimer's Disease, 83 kg, three one-hour sessions, total 33 units insulin, 14 milliunits/kg): approximately 38%
Carbon Dioxide Production after treatment (person with Alzheimer's Disease, 83 kg, three one-hour sessions, total 33 units insulin, 14 milliunits/kg, baseline 0.151): 0.208 L per 30 seconds
Resting Energy Ratio after treatment (person with Alzheimer's Disease, 83 kg, three one-hour sessions, total 33 units insulin, 14 milliunits/kg, baseline 0.79): 0.99
increase in ATP from carbohydrates (person, 50.5 kg, three one-hour sessions, total 42 units insulin, 28 milliunits/kg): approximately 280%
Carbon Dioxide Production after treatment (person, 50.5 kg, three one-hour sessions, total 42 units insulin, 28 milliunits/kg, baseline 0.121): 0.342 L per 30 seconds
Resting Energy Ratio after treatment (person, 50.5 kg, three one-hour sessions, total 42 units insulin, 28 milliunits/kg, baseline 0.67): 0.98
increase in ATP from carbohydrates (person, 70 kg, three one-hour sessions, total 45 units insulin, 22 milliunits/kg): approximately 320%
Carbon Dioxide Production after treatment (person, 70 kg, three one-hour sessions, total 45 units insulin, 22 milliunits/kg, baseline 0.091): 0.293 L per 30 seconds
Resting Energy Ratio after treatment (person, 70 kg, three one-hour sessions, total 45 units insulin, 22 milliunits/kg, baseline 0.63): 0.98
Carbon Dioxide Production after treatment (person, 85 kg, three one-hour sessions plus rest cycles, total 63 units insulin, 25 milliunits/kg, baseline 0.124): 0.255 L per 30 seconds
increase in ATP from carbohydrates (person, 85 kg, three one-hour sessions, total 63 units insulin, 25 milliunits/kg): approximately 205%
Resting Energy Ratio after treatment (person, 85 kg, three one-hour sessions, total 63 units insulin, 25 milliunits/kg, baseline 0.66): 0.96
